Species: Rattus norvegicus
Experiment: Open TG-GATES - Regimen: Daily Repeat
Format: toxicity, organism-based, Sprague-Dawley
Design: regimen Daily Repeat, gender Male, age 6 weeks
Conditions: in vivo, po, 75 mg/kg, […], route gavage, dose level High; for KIDNEY_L / KIDNEY_R / KIDNEY_TOTAL: tissue Kidney; for LIVER: tissue Liver; for A/G / ALP / ALT / AST / BUN / CRE / Ca / Cl / DBIL / GLC / IP / K / LDH / Na / PL / RALB / TBIL / TC / TG / TP / gamma-GTP: tissue Plasma

SMILES: NC1=NC(=O)C(c2ccccc2)O1 (stereo unspecified) [PEMOLINE]
- Lym (tissue Blood, time 28 day): 79.4%
- MCH (tissue Blood, time 28 day): 20.8 pg
- MCHC (tissue Blood, time 28 day): 35.6%
- MCV (tissue Blood, time 28 day): 58.5 fL
- Mono (tissue Blood, time 28 day): 2.8%
- Neu (tissue Blood, time 28 day): 16.2%
- PT (tissue Blood, time 28 day): 12.6 s
- Plat (tissue Blood, time 28 day): 90.5 x10_4/uL
- RBC (tissue Blood, time 28 day): 755.2 x10_4/ul
- Ret (tissue Blood, time 28 day): 2.8%
- WBC (tissue Blood, time 28 day): 90.3 x10_2/uL
- KIDNEY_L (time 7 day): 1.1 g
- KIDNEY_R (time 7 day): 1.1 g
- KIDNEY_TOTAL (time 7 day): 2.1 g
- KIDNEY_L (time 14 day): 1.3 g
- KIDNEY_R (time 14 day): 1.3 g
- KIDNEY_TOTAL (time 14 day): 2.6 g
- KIDNEY_L (time 28 day): 1.5 g
- KIDNEY_R (time 28 day): 1.4 g
- KIDNEY_TOTAL (time 28 day): 2.9 g
- LIVER (time 7 day): 10.9 g
- LIVER (time 14 day): 13.8 g
- LIVER (time 28 day): 16.2 g
- A/G (time 7 day): 0.9
- ALP (time 7 day): 1601.8 IU/L
- ALT (time 7 day): 44 IU/L
- AST (time 7 day): 83.2 IU/L
- BUN (time 7 day): 15 mg/dL
- CRE (time 7 day): 0.2 mg/dL
- Ca (time 7 day): 10.6 mg/dL
- Cl (time 7 day): 105.8 meq/L
- DBIL (time 7 day): 0.015 mg/dL
- GLC (time 7 day): 174.8 mg/dL
- IP (time 7 day): 7.7 mg/dL
- K (time 7 day): 4.4 meq/L
- LDH (time 7 day): 65 IU/L
- Na (time 7 day): 142.5 meq/L
- PL (time 7 day): 128.2 mg/dL
- RALB (time 7 day): 2.6 g/dL
- TBIL (time 7 day): 0.025 mg/dL
- TC (time 7 day): 65.8 mg/dL
- TG (time 7 day): 65.5 mg/dL
- TP (time 7 day): 5.6 g/dL
- gamma-GTP (time 7 day): 1 IU/L
- A/G (time 14 day): 0.8
- ALP (time 14 day): 1468 IU/L
- ALT (time 14 day): 39 IU/L
- AST (time 14 day): 79.8 IU/L
- BUN (time 14 day): 14.8 mg/dL
- CRE (time 14 day): 0.2 mg/dL
- Ca (time 14 day): 11.1 mg/dL
- Cl (time 14 day): 106 meq/L
- DBIL (time 14 day): 0.012 mg/dL
- GLC (time 14 day): 176.2 mg/dL
- IP (time 14 day): 8.1 mg/dL
- K (time 14 day): 4 meq/L
- LDH (time 14 day): 79.2 IU/L
- Na (time 14 day): 143.4 meq/L
- PL (time 14 day): 135 mg/dL
- RALB (time 14 day): 2.7 g/dL
- TBIL (time 14 day): 0.022 mg/dL
- TC (time 14 day): 69.2 mg/dL
- TG (time 14 day): 86.8 mg/dL
- TP (time 14 day): 5.9 g/dL
- gamma-GTP (time 14 day): 1 IU/L
- A/G (time 28 day): 0.8
- ALP (time 28 day): 1096 IU/L
- ALT (time 28 day): 44.6 IU/L
- AST (time 28 day): 77.6 IU/L
- BUN (time 28 day): 16.4 mg/dL
- CRE (time 28 day): 0.2 mg/dL
- Ca (time 28 day): 11.3 mg/dL
- Cl (time 28 day): 105 meq/L
- DBIL (time 28 day): 0.024 mg/dL
- GLC (time 28 day): 179.2 mg/dL
- IP (time 28 day): 7.6 mg/dL
- K (time 28 day): 4 meq/L
- LDH (time 28 day): 81.4 IU/L
- Na (time 28 day): 143.6 meq/L
- PL (time 28 day): 126.8 mg/dL
- RALB (time 28 day): 2.8 g/dL
- TBIL (time 28 day): 0.034 mg/dL
- TC (time 28 day): 59 mg/dL
- TG (time 28 day): 132 mg/dL
- TP (time 28 day): 6.2 g/dL
- gamma-GTP (time 28 day): 1 IU/L

— ChEMBL document CHEMBL3885861, “Open TG-GATES”
